These compounds were tested against T1, human LPA1 (Homo sapiens, UniProt Q92633) (assay: LPA1 functional antagonist assay (calcium flux)). Conditions: CHO cells overexpressing human LPA1; calcium flux induced by 10 nM LPA; read-out: hLPA1 IC50.
T1 construct: expressed in transfected cells; host or cells: Chinese hamster ovary (CHO) cells
Type: cell-based
Protocol: The effectiveness of compounds of the present invention as LPA1 inhibitors can be determined in an LPA1 functional antagonist assay as follows:
The cells were then equilibrated to room temperature for 30 minutes before the assay. […] IC50 values were determined by fitting data to a 4-parameter logistic equation (GraphPad Prism, San Diego Calif.).

T1 sequence (Q92633 whole entry): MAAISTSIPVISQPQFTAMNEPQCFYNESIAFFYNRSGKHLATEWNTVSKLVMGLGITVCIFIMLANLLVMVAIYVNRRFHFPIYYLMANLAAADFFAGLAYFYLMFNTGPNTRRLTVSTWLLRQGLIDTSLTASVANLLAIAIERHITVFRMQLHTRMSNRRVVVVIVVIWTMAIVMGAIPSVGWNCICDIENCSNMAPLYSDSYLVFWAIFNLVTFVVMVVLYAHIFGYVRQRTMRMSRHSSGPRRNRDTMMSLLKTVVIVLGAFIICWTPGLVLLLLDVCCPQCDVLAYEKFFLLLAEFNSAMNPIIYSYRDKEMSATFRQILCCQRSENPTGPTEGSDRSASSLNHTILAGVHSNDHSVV

IC50 | Compound
167 nM | Cc1nc(-c2nnn(C)c2CNS(=O)(=O)N(C)CC2CCCC2)ccc1O[C@H]1CCC[C@H](C(=O)O)C1 [Example 137, (1S,3S)-3-((6-(5-(((N-(cyclopentylmethyl)-N-methylsulfamoyl)amino)methyl)-1-methyl-1H-1,2,3-triazol-4-yl)-2-methylpyridin-3-yl)oxy)cyclohexane-1-carboxylicacid]
449 nM | CCCCN(C)S(=O)(=O)NCc1c(-c2ccc(O[C@H]3CCC[C@H](C(=O)O)C3)c(C)n2)nnn1C [Example 138, (1S,3S)-3-((6-(5-(((N-butyl-N-methylsulfamoyl)amino)methyl)-1-methyl-1H-1,2,3-triazol-4-yl)-2-methylpyridin-3-yl)oxy)cyclohexane-1-carboxylic acid]
313 nM | Cc1nc(-c2nnn(C)c2CNS(=O)(=O)N(C)Cc2ccccc2)ccc1O[C@H]1CCC[C@H](C(=O)O)C1 [Example 139, (1S,3S)-3-((6-(5-(((N-benzyl-N-methylsulfamoyl)amino)methyl)-1-methyl-1H-1,2,3-triazol-4-yl)-2-methylpyridin-3-yl)oxy)cyclohexane-1-carboxylic acid]
29 nM | CCCC(C)OC(=O)Nc1c(-c2ccc(O[C@H]3CCC[C@H](C(=O)O)C3)c(C)n2)nnn1C (stereo partly drawn) [Example 140, (1S,3S)-3-((2-methyl-6-(1-methyl-5-(((pentan-2-yloxy)carbonyl)amino)-1H-1,2,3-triazol-4-yl)pyridin-3-yl)oxy)cyclohexane-1-carboxylic acid]
78 nM | Cc1nc(-c2nnn(C)c2NC(=O)OC2CCCCC2)ccc1O[C@H]1CCC[C@H](C(=O)O)C1 [Example 141, (1S,3S)-3-((6-(5-(((cyclohexyloxy)carbonyl)amino)-1-methyl-1H-1,2,3-triazol-4-yl)-2-methylpyridin-3-yl)oxy)cyclohexane-1-carboxylic acid]
30 nM | CCC(CC)OC(=O)Nc1c(-c2ccc(O[C@H]3CCC[C@H](C(=O)O)C3)c(C)n2)nnn1C [Example 142, (1S,3S)-3-((2-methyl-6-(1-methyl-5-(((pentan-3-yloxy)carbonyl)amino)-1H-1,2,3-triazol-4-yl)pyridin-3-yl)oxy)cyclohexane-1-carboxylic acid]
478 nM | Cc1nc(-c2nnn(C)c2NC(=O)OCC(C)F)ccc1O[C@H]1CCC[C@H](C(=O)O)C1 (stereo partly drawn) [Example 143, (1S,3S)-3-((6-(5-(((2-fluoropropoxy)carbonyl)amino)-1-methyl-1H-1,2,3-triazol-4-yl)-2-methylpyridin-3-yl)oxy)cyclohexane-1-carboxylic acid]
254 nM | Cc1nc(-c2nnn(C)c2NC(=O)OCCCF)ccc1O[C@H]1CCC[C@H](C(=O)O)C1 [Example 144, (1S,3S)-3-((6-(5-(((3-fluoropropoxy)carbonyl)amino)-1-methyl-1H-1,2,3-triazol-4-yl)-2-methylpyridin-3-yl)oxy)cyclohexane-1-carboxylic acid]
43 nM | Cc1nc(-c2nnn(C)c2NC(=O)OCCC(F)(F)F)ccc1O[C@H]1CCC[C@H](C(=O)O)C1 [Example 145, (1S,3S)-3-((2-methyl-6-(1-methyl-5-(((3,3,3-trifluoropropoxy)carbonyl)amino)-1H-1,2,3-triazol-4-yl)pyridin-3-yl)oxy)cyclohexane-1-carboxylic acid]
306 nM | Cc1nc(-c2nnn(C)c2NC(=O)N[C@H](C)C2CC2)ccc1O[C@H]1CCC[C@H](C(=O)O)C1 [Example 146, (1S,3S)-3-((6-(5-(3-((R)-1-cyclopropylethyl)ureido)-1-methyl-1H-1,2,3-triazol-4-yl)-2-methylpyridin-3-yl)oxy)cyclohexane-1-carboxylic acid]
62 nM | CCc1nc(-c2nnn(C)c2CNC(=O)N(C)CC2CCC2)ccc1O[C@H]1CCC[C@H](C(=O)O)C1 [Example 148, (1S,3S)-3-((6-(5-((3-(cyclobutyl-methyl)-3-methylureido)methyl)-1-methyl-1H-1,2,3-triazol-4-yl)-2-ethylpyridin-3-yl)oxy)cyclohexane-1-carboxylic acid]
143 nM | CCc1nc(-c2nnn(C)c2CNC(=O)N(C)Cc2ccccc2)ccc1O[C@H]1CCC[C@H](C(=O)O)C1 [Example 149, (1S,3S)-3-((6-(5-((3-benzyl-3-methylureido)methyl)-1-methyl-1H-1,2,3-triazol-4-yl)-2-ethyl-pyridin-3-yl)oxy)cyclohexane-1-carboxylic acid]
44 nM | CCCCN(C)C(=O)NCc1c(-c2ccc(O[C@H]3CCC[C@H](C(=O)O)C3)c(CC)n2)nnn1C [Example 150, (1S,3S)-3-((6-(5-((3-butyl-3-methylureido)methyl)-1-methyl-1H-1,2,3-triazol-4-yl)-2-ethyl-pyridin-3-yl)oxy)cyclohexane-1-carboxylic acid]
647 nM | CCCCNC(=O)NCc1c(-c2ccc(O[C@H]3CCC[C@H](C(=O)O)C3)c(CC)n2)nnn1C [Example 151, (1S,3S)-3-((6-(5-((3-butyl-ureido)methyl)-1-methyl-1H-1,2,3-triazol-4-yl)-2-ethylpyridin-3-yl)oxy)cyclohexane-1-carboxylic acid]
270 nM | CCc1nc(-c2nnn(C)c2CNC(=O)NCC2CC2)ccc1O[C@H]1CCC[C@H](C(=O)O)C1 [Example 152, (1S,3S)-3-((6-(5-((3-(cyclopropyl-methyl)ureido)methyl)-1-methyl-1H-1,2,3-triazol-4-yl)-2-ethyl-pyridin-3-yl)oxy)cyclohexane-1-carboxylic acid]
107 nM | CCc1nc(-c2nnn(C)c2CNC(=O)NCc2ccccc2)ccc1O[C@H]1CCC[C@H](C(=O)O)C1 [Example 153, (1S,3S)-3-((6-(5-((3-benzyl-ureido)methyl)-1-methyl-1H-1,2,3-triazol-4-yl)-2-ethylpyridin-3-yl)oxy)cyclohexane-1-carboxylic acid]

Same assay, conditions: human LPA1 functional antagonist assay; read-out: hLPA1 IC50

IC50 | Compound
213 nM | Cc1nc(-c2nnn(C)c2CNC(=O)OCC2CCC2)cnc1O[C@H]1CCC[C@H](C(=O)O)C1 [Example 156, (1S,3S)-3-((5-(5-((((cyclobutyl-methoxy)carbonyl)amino)methyl)-1-methyl-1H-1,2,3-triazol-4-yl)-3-methylpyrazin-2-yl)oxy)cyclohexane-1-carboxylic acid]
19 nM | Cc1nc(-c2nnn(C)c2CNC(=O)OCCC2CC2)ccc1O[C@H]1CCC[C@H](C(=O)O)C1 [Example 157, (1S,3S)-3-((6-(5-((((2-cyclopropyl-ethoxy)carbonyl)amino)methyl)-1-methyl-1H-1,2,3-triazol-4-yl)-2-methylpyridin-3-yl)oxy)cyclo-hexane-1-carboxylic acid]
122 nM | Cc1nc(-c2nnn(C)c2CNC(=O)OCc2cccc(F)c2)cnc1O[C@H]1CCC[C@H](C(=O)O)C1 [Example 159, (1S,3S)-3-((5-(5-(((((3-fluorobenzyl)oxy)carbonyl)amino)methyl)-1-methyl-1H-1,2,3-triazol-4-yl)-3-methylpyrazin-2-yl)oxy)cyclo-hexane-1-carboxylic acid]
66 nM | Cc1nc(-c2nnn(C)c2CNC(=O)OCCC2CC2)cnc1O[C@H]1CCC[C@H](C(=O)O)C1 [Example 160, (1S,3S)-3-((5-(5-((((2-cyclopropylethoxy)carbonyl)amino)methyl)-1-methyl-1H-1,2,3-triazol-4-yl)-3-methylpyrazin-2-yl)oxy)cyclo-hexane-1-carboxylic acid]
88 nM | Cc1nc(-c2nnn(C)c2CNC(=O)OCC2(CCF)CC2)ccc1O[C@H]1CCC[C@H](C(=O)O)C1 [Example 163, (1S,3S)-3-((6-(5-(((((1-(2-fluoro-ethyl)cyclopropyl)methoxy)carbonyl)amino)methyl)-1-methyl-1H-1,2,3-triazol-4-yl)-2-methylpyridin-3-yl)oxy)cyclohexane-1-carboxylic acid]
65 nM | Cc1nc(-c2nnn(C)c2CNC(=O)OCC2CC2(C)C)ccc1O[C@H]1CCC[C@H](C(=O)O)C1 (stereo partly drawn) [Example 164, (1S,3S)-3-((6-(5-(((((2,2-dimethyl-cyclopropyl)methoxy)carbonyl)amino)methyl)-1-methyl-1H-1,2,3-triazol-4-yl)-2-methylpyridin-3-yl)oxy)cyclohexane-1-carboxylic acid]

Compound | IC50
CC(COC(=O)NCc1c(-c2ncc(O[C@H]3CCC[C@H](C(=O)O)C3)cn2)nnn1C)CC(F)(F)F (stereo partly drawn) [Example 154, (1S,3S)-3-((2-(1-methyl-5-((((4,4,4-trifluoro-2-methylbutoxy)carbonyl)amino)methyl)-1H-1,2,3-triazol-4-yl)pyrimidin-5-yl)oxy)cyclohexane-1-carboxylic acid] | 2900 nM
Cc1nc(-c2nnn(C)c2CNC(=O)OCC(C)CC(F)(F)F)cnc1O[C@H]1CCC[C@H](C(=O)O)C1 (stereo partly drawn) [Example 155, (1S,3S)-3-((3-methyl-5-(1-methyl-5-((((4,4,4-trifluoro-2-methylbutoxy)carbonyl)amino)methyl)-1H-1,2,3-triazol-4-yl)pyrazin-2-yl)oxy)cyclohexane-1-carboxylic acid] | 85 nM
Cc1nc(-c2nnn(C)c2CNC(=O)OCCC(C)(C)C)cnc1O[C@H]1CCC[C@H](C(=O)O)C1 [Example 158, (1S,3S)-3-((5-(5-((((3,3-dimethyl-butoxy)carbonyl)amino)methyl)-1-methyl-1H-1,2,3-triazol-4-yl)-3-methylpyrazin-2-yl)oxy)cyclo-hexane-1-carboxylic acid] | 76 nM
CC[C@H](C)COC(=O)NCc1c(-c2cnc(O[C@H]3CCC[C@H](C(=O)O)C3)c(C)n2)nnn1C [Example 161, (1S,3S)-3-((3-methyl-5-(1-methyl-5-(((((S)-2-methylbutoxy)carbonyl)amino)methyl)-1H-1,2,3-triazol-4-yl)pyrazin-2-yl)oxy)cyclohexane-1-carboxylic acid] | 109 nM
Cc1nc(-c2nnn(C)c2CNC(=O)OCCCCF)ccc1O[C@H]1CCC[C@H](C(=O)O)C1 [Example 162, (1S,3S)-3-((6-(5-((((4-fluorobutoxy)carbonyl)amino)methyl)-1-methyl-1H-1,2,3-triazol-4-yl)-2-methyl-pyridin-3-yl)oxy)cyclohexane-1-carboxylic acid] | 60 nM

— patent US11697646B2, “Triazole N-linked carbamoyl cyclohexyl acids as LPA antagonists” (BRISTOL-MYERS SQUIBB COMPANY, priority 2017, dated 2023)
